Literature values as cited in patent US8080647B2 (priority 2006, dated 2011).

B1: lactose repressor: repressor protein of the E. coli lactose operon (protein, UniProt P03023 1-360, looked up)
Lactose operon repressor: MKPVTLYDVAEYAGVSYQTVSRVVNQASHVSAKTREKVEAAMAELNYIPNRVAQQLAGKQSLLIGVATSSLALHAPSQIVAAIKSRADQLGASVVVSMVERSGVEACKAAVHNLLAQRVSGLIINYPLDDQDAIAVEAACTNVPALFLDVSDQTPINSIIFSHEDGTRLGVEHLVALGHQQIALLAGPLSSVSARLRLAGWHKYLTRNQIQPIAEREGDWSAMSGFQQTMQMLNEGIVPTAMLVANDQMALGAMRAITESGLRVGADISVVGYDDTEDSSCYIPPLTTIKQDFRLLGQTSVDRLLQLSQGQAVKGNQLLPVSLVKRKTTLAPNTQTASPRALADSLMQLARQVSRLESGQ

Columns and labels:
[1] = molecular target: lac repressor (Escherichia coli, UniProt P03023)
[2] = test system: cells
[3] = test system: lac operator-repressor system; details: Ulmasov et al. 1997

Molecule | reduction of the affinity of lac repressor for the operator [1] [fold] | toxicity of the inducing agent [2] | repression reported [3] [fold]
CC(C)S[C@@H]1O[C@H](CO)[C@H](O)[C@H](O)[C@H]1O [IPTG, isopropyl-B-D-thiogalactopyranoside] | 300 | cytotoxic | 
B1 |  |  | 30
